Assay results published in patent US6281352.
Where two headings read alike, the source gives them in different places.

Molecule `C=C1CO[C@H](COCc2ccccc2)[C@@H](C/C=C/c2ccccc2)C(=O)N[C@H](C(=O)NC)CCCN(C(C)=O)C1` has a ring closure, yield of all isomers (from C=C(CBr)CO[C@H](COCc1ccccc1)[C@@H](C/C=C/c1ccccc1)C(=O)N[C@@H](CCCN)C(=O)NC, amine bond, diisopropylethylamine, acetonitrile, 2.1 mM, 3 steps) of 76%.
`COC(=O)[C@@H]1CCCc2ccc(cc2)OCCC[C@H](C(=O)OC(C)(C)C)[C@@H](CC(C)C)C(=O)N1` gave a ring closure, yield of all isomers (from COC(=O)[C@H](CCCc1ccc(O)cc1)NC(=O)[C@H](CC(C)C)[C@H](CCCBr)C(=O)OC(C)(C)C, ether bond, Cs2CO3, DMF, 8.7 mM, 0.0 °C, 2.0 h) of 32%.
Molecule `COC(=O)[C@@H]1Cc2ccc(cc2)OCCC[C@H](C(=O)OC(C)(C)C)[C@@H](CC(C)C)C(=O)N1` has a ring closure, yield of all isomers (from COC(=O)[C@H](Cc1ccc(O)cc1)NC(=O)[C@H](CC(C)C)[C@H](CCCBr)C(=O)OC(C)(C)C, ether bond, Cs2CO3, DMF, 32.8 mM, 80.0 °C, 0.75 h) of 74%.
`CNC(=O)[C@@H]1CCCCN(S(=O)(=O)c2c(C)cc(C)cc2C)CCC[C@H](C(=O)OC(C)(C)C)[C@@H](CC(C)C)C(=O)N1` showed a ring closure, yield of all isomers (from CNC(=O)[C@H](CCCCNS(=O)(=O)c1c(C)cc(C)cc1C)NC(=O)[C@H](CC(C)C)[C@H](CCCO)C(=O)OC(C)(C)C, amine bond, PPh3/DIAD, THF, 21.5 mM, 16.0 h, 2 steps) of 30%.
Molecule `CNC(=O)[C@@H]1CCCCNC(=O)CC[C@H](C(=O)OC(C)(C)C)N[C@@H](CCc2ccccc2)C(=O)N1` has a ring closure, yield of all isomers (from CNC(=O)[C@@H](N)CCCCNC(=O)CC[C@@H](N[C@@H](CCc1ccccc1)C(=O)O)C(=O)OC(C)(C)C, amide bond, BOP, DMF, 24.0 h) of 16%.
Work on `CNC(=O)[C@@H]1CCCCNC(=O)C[C@H](C(=O)OC(C)(C)C)N[C@@H](CCc2ccccc2)C(=O)N1` yielded a ring closure, yield of all isomers (from CNC(=O)[C@@H](N)CCCCNC(=O)C[C@@H](N[C@@H](CCc1ccccc1)C(=O)O)C(=O)OC(C)(C)C, amide bond, BOP, DMF, 24.0 h, 2 steps) of 30%.
Molecule `CNC(=O)[C@@H]1CCCCN(S(=O)(=O)C(F)(F)F)CCC[C@H](C(=O)OC(C)(C)C)[C@@H](CC(C)C)C(=O)N1` has a ring closure, yield of all isomers (from CNC(=O)[C@H](CCCCNS(=O)(=O)C(F)(F)F)NC(=O)[C@H](CC(C)C)[C@H](CCCO)C(=O)OC(C)(C)C, amine bond, DIAD/PPh3, THF, 15.6 mM, 16.0 h, 2 steps) of 52%.
For `CNC(=O)[C@@H]1CCC(=O)OCCC[C@H](C(=O)OC(C)(C)C)[C@@H](CC(C)C)C(=O)N1`, the ring closure, yield of all isomers (from CNC(=O)[C@H](CCC(=O)O)NC(=O)[C@H](CC(C)C)[C@H](CCCO)C(=O)OC(C)(C)C, ester bond, PPh3/DIAD, THF, 9.4 mM, 16.0 h, 2 steps) was 24%.
Molecule `CNC(=O)[C@@H]1CCCCN(S(=O)(=O)c2ccc([N+](=O)[O-])cc2)CCC[C@H](C(=O)OC(C)(C)C)[C@@H](CC(C)C)C(=O)N1` has a ring closure, yield of all isomers (from CNC(=O)[C@H](CCCCNS(=O)(=O)c1ccc([N+](=O)[O-])cc1)NC(=O)[C@H](CC(C)C)[C@H](CCCO)C(=O)OC(C)(C)C, amine bond, PPh3/DIAD, THF, 24.7 mM) of 26%.
`CNC(=O)[C@@H]1CCCCN(S(=O)(=O)c2cn(C)cn2)CCC[C@H](C(=O)OC(C)(C)C)[C@@H](CC(C)C)C(=O)N1` gave a ring closure, yield of all isomers (from CNC(=O)[C@H](CCCCNS(=O)(=O)c1cn(C)cn1)NC(=O)[C@H](CC(C)C)[C@H](CCCO)C(=O)OC(C)(C)C, amine bond, PPh3/DIAD, THF, 17.1 mM, 16.0 h) of 52%.
